The text below walks through data of publication PMC7143549, “Anticancer Activities of Meroterpenoids Isolated from the Brown Alga Cystoseira usneoides against the Human Colon Cancer Cells HT-29” (Foods, 2020).

Assay [1] has as its system normal human colonic epithelial cells CCD 841 CoN. Nature of the assay: Sulforhodamine B (SRB) cell viability assay, CCD 841 CoN. Format: cell-based. The conditions noted are these: normal colon cells, 72 h of treatment, mean ± SE of three experiments, read-out: IC50 CCD841 CoN. On the procedure: Cell viability was quantified using the Sulforhodamine B assay described by Skehan et al.. Cells were plated with a density of 5 × 10^3 (HT-29) and 1 × 10^4 (CCD 841 CoN) cells/well and allowed to attach at 37 °C in an atmosphere with 5% CO2. After 24 h, the AMTs dissolved in DMSO were added to the cells (final concentrations of 10, 20, 30, and 50 µg/mL and less than 0.05% of DMSO) and the plates were incubated for 72 h. Then, the cells were fixed by adding 50 μL of TCA (50%) to each well and the plates were maintained for 1 h at 4 °C. The plates were washed five times with deionized water, air-dried, and stained for 30 min at room temperature with 100 μL of 0.4% (w/v) SRB prepared in 1% (v/v) acetic acid. The plates were rinsed quickly five times with 1% acetic acid to remove unbound dye, followed by air-drying. The bound dye was solubilized in 2 mM Tris base (100 μL/well) for 5 min. Optical densities were read on a microplate reader (Spectrophotometer LabsystemsMultiskan EX, λ 492 nm). Three independent assays were conducted, each one in duplicate. A standard curve was constructed for each experiment and used for converting the measured optical density values into numbers of viable cells/well. The inhibition rate was used to evaluate the cell viability and its algorithm was the following formula: ((ODcontrol − ODtreatment)/ODcontrol) × 100; OD, optical density. The OD492 for control cells was taken as 100% viability. The half maximal inhibitory concentration (IC50) was calculated. The selectivity index (SI) of each compound was calculated as IC50 of the compound against the CCD 841 CoN normal cell line/IC50 of the same compound against the HT-29 cancer cell line.

The test system of assay [2] is HT-29 colon cancer cells. Nature of the assay: Cell cycle analysis by flow cytometry (PI). Format: cell-based, human. The conditions noted are these: 24 h; 30 μg/mL of 1, 2, 5, 6, 7, 8 and 90 μg/mL of 3 and 4 (Figure 4B). As for the experimental part:
HT-29 cells (1 × 10^6 cells/well) were seeded in six-well plates and incubated for 24 h, followed by treatment with AMTs dissolved in DMSO (final concentrations of 10, 20, and 30 µg/mL for compounds 1, 2, 5, 6, 7, and 8, and 30, 60, and 90 µg/mL for compounds 3 and 4, and always below 0.05% DMSO) and 24 h of additional incubation. Colchicine (final concentration of 0.2 μg/mL) was used as positive control. The cells were then washed, harvested with trypsin, and centrifuged at 1500 rpm (5 min, 25 °C). The resulting pellet was fixed with ice-cold 70% ethanol (1 mL/10^6 cells) and the samples were stored at −4°C overnight. After fixation, the cells were washed with PBS, stained with PBS containing 5 mg/mL of RNase A, and incubated for 48 h at 4 °C. Subsequently, 50 μL of 0.1 mg/mL of IP was added and incubated for 1 h at 4 °C. The relative DNA content per cell was analyzed using a Cytomics FC500 flow cytometer (Beckman Coulter, Indianapolis, IN, USA). The data acquisition was performed with the DML program and the analysis of the acquired data with the CXP Software (Beckman Coulter, Indianapolis, IN, USA).
(In general: Flow cytometry measures light scatter and fluorescence of single cells or particles in a stream.)

For another assay, the system named is p-ERK1/2 in HT-29 cells. Briefly: Western blot of phosphorylated ERK1/2. In kind it is cell-based, human. The following applies: 24 h; 10 and 20 μg/mL. As for the experimental part: Cells were cultured to 80% confluence at 37 °C. After 24 h of treatment with the compounds (10 and 20 µg/mL for compounds 1, 2, 5, 6, 7, and 8, and 30 and 60 µg/mL for compounds 3 and 4), HT-29 cells were rinsed twice with ice-cold PBS, and then lysed immediately in lysis buffer (250 mM NaCl, 50 mM Tris (pH 7.5), 0.5 mM EDTA, 5 mM EGTA, 8 mM MgCl2, 1 mM PMSF, 0.01 mg/mL pepstatin A, 0.01 mg/mL leupeptin, 0.01 mg/mL aprotinin, 1% Triton X-100). After centrifugation at 12,000 g for 3 min at 4°C to separate the cellular debris, the supernatant was collected and stored at −80°C until use. The protein concentrations were determined using Bio-Rad Protein Assay (BioRad, Richmond, CA, USA), according to the manufacturer’s instructions.
Equal protein content (50 μg) samples of cell lysates were separated on 10% SDS–polyacrylamide gel and transferred to polyvinylidene difluoride membranes (Hybond-P, Amershan Biosciences, Little Chalfont, UK). The membranes were blocked with 5% (w/v) non-fat dry milk in Tris-buffered saline containing 0.1% Tween-20 buffer (pH 7.4) (TBST) for 1 h at room temperature and incubated with agitation with specific antibodies: anti-pERK1/2 (Cell Signaling; 1:1000), anti-pJNK (Cell Signaling; 1:1000), anti-pAKT (Cell Signaling; 1:1000), anti-β-actin (Sigma-Aldrich; 1:500). Membranes were incubated overnight at 4°C with gentle shaking. The secondary antibody was a peroxidase-conjugated goat anti-mouse or -rabbit antibody (1:10,000; DakoCytomation, Carpinteria, CA, USA). After washing the membrane three times in TBST buffer (10 min), the signals were detected using an enhanced chemiluminescence light-detecting kit (Super-Signal West Pico Chemiluminescent Substrate, Pierce, IL, USA), according to the manufacturer’s instructions and exposed to an X-ray film (GE Healthcare Ltd., Amersham, UK). The protein band densities were analyzed and quantified with a Scientific Imaging Systems (Biophotonics ImageJ Analysis Software, National Institute of Mental Health, Bethesda, MD, USA). β-actin was used to confirm the equal loading and transfer of proteins.
A general note: Immunoblotting shows a protein as a band on a membrane.

Assay [3] relates to HT-29 colon cancer cells. Briefly: Annexin V-FITC/PI flow cytometry apoptosis induction assay. The following applies: 24 h; for necrosis (dead cells): 30 μg/mL. In kind it is cell-based, human. As for the experimental part: Quantitative assessment of apoptosis was performed by flow cytometry using an Annexin V-FITC Apoptosis Detection Kit. Briefly, 1 × 10^6 HT-29 cells were seeded per well in six-well plates and incubated for 24 h, followed by the addition of the AMTs dissolved in DMSO (final concentrations of 10, 20, and 30 µg/mL for compounds 1, 2, 5, 6, 7, and 8, and 30, 60, and 90 µg/mL for compounds 3 and 4, and less than 0.05% DMSO) and incubation for 24 h. Curcumin (final concentrations of 50 and 75 μM) was used as positive control. The cells were then washed, harvested with trypsin, and centrifuged at 1500 rpm (5 min, 25 °C). The pellet was resuspended in 195 µL of 1 × Annexin buffer and then stained with 5 μL of Annexin V-FITC and 10 μL of PI for 10 min at room temperature, in the dark. To this mixture 200 μL of 1 × Annexin buffer was added before analysis using a Cytomics FC500 flow cytometer (Beckman Coulter, Indianapolis, IN, USA). Following a gating strategy, flow cytometry plots of size (FS) and complexity (SS) of the HT-29 cells were previously established for the elaboration of a measurement protocol. The normal healthy cells, early apoptosis, late apoptosis, and necrotic populations were represented by annexin V-negative/PI-negative population, annexin V-positive/PI-negative, annexin V-positive/PI-positive and annexin-negative/PI-positive cells, respectively. A total of 10,000 cellular events in each sample were analyzed using DML program.

≈ marks a conversion by molar mass, not a printed value.

The IC50 is the concentration that inhibits the measured activity by half. `COc1c(C)cc(O)cc1/C=C/C(C)(O)CC(=O)/C=C(\C)CCCC(C)C(=O)/C=C/C(C)(C)O` (centres unmarked) [Compound 8, cystodione B]: the IC50 in assay [1] was 31.9 ± 7.51 µg/mL (≈ 67.5 µM). For the same compound, the “accumulation of cells at the G2/M phase (cell cycle arrest, words)” value (“accumulation of cells at the G2/M phase” for short) with HT-29 colon cancer cells [2] is “not significant”. Further, the “p-ERK1/2 level vs control” value in the assay on p-ERK1/2 in HT-29 cells is reported as “significantly reduced”. In addition, the “necrosis (dead cells)” value with HT-29 colon cancer cells [3] is recorded as 20.12%.
`COc1c(C)cc(O)cc1C/C=C(\C)CC(=O)/C=C(\C)CCCC(C)=O` [Compound 3, cystomexicone B]: the IC50 in assay [1] is more than 50 µg/mL. In addition, in the assay on HT-29 colon cancer cells [2], the “accumulation of cells at the G2/M phase” value is reported as “significant”. Further, in the assay with HT-29 colon cancer cells [3] (90 μg/mL), the “early apoptotic cells (Annexin V+PI-)” value was 4.47%, the “late apoptotic cells (Annexin V+PI+)” value amounted to 52.12% and the “total percentage of apoptotic cells” value came to 56.6%.
As for `COc1c(C)cc(O)cc1C/C=C(\C)CC(=O)/C=C(/C)CCCC(C)(O)C(=O)/C=C/C(C)(C)O` (centres unmarked) [Compound 1, usneoidone Z], in assay [1], the IC50 turned out to be 46.4 ± 3.87 µg/mL (≈ 98.2 µM). The “accumulation of cells at the G2/M phase” value in the assay with HT-29 colon cancer cells [2] is “significant cell cycle arrest in the G2/M”. In addition, in the assay on p-ERK1/2 in HT-29 cells, the “p-ERK1/2 level vs control” value was “significantly reduced”. The “necrosis (dead cells)” value in the assay with HT-29 colon cancer cells [3] came to 31.22%.
On to `COc1c(C)cc(O)cc1C/C=C(\C)CC(=O)/C=C(\C)CCCC(C)(O)C(=O)/C=C/C(C)(C)O` (centres unmarked) [Compound 2, 11-hydroxy-1′-O-methylamentadione], for which the IC50 in assay [1] worked out at 21.4 ± 2.5 µg/mL (≈ 45.3 µM). The “accumulation of cells at the G2/M phase” value in the assay on HT-29 colon cancer cells [2] is listed as “significant”. Moreover, the “p-ERK1/2 level vs control” value in the assay on p-ERK1/2 in HT-29 cells is listed as “significantly reduced”. Also, in the assay on HT-29 colon cancer cells [3] (30 μg/mL (Figure 3B)), the early apoptotic cells was 1.94% and the late apoptotic cells was determined as 12.94%. Further, the viability at 30 µg/mL in the assay on HT-29 colon cancer cells [3] (Homo sapiens, HT-29, 30 μg/mL (Figure 3B), read-out: viable cells) was found to be 57.7%.
`COc1c(C)cc(O)cc1/C=C/C(C)(O)CC(=O)/C=C(/C)CCCC(C)C(=O)/C=C/C(C)(C)O` (centres unmarked) [Compound 7, cystodione A]: in assay [1], the IC50 was more than 50 µg/mL. For the same compound, the “accumulation of cells at the G2/M phase” value in the assay with HT-29 colon cancer cells [2] is on record as “significant”. The “p-ERK1/2 level vs control” value in the assay with p-ERK1/2 in HT-29 cells is listed as “significantly reduced”. In the assay on HT-29 colon cancer cells [3] (4 tested at 30-90 μg/mL, 7 at 10-30 μg/mL), the “induction of apoptosis or death of HT-29 cells” value is recorded as “did not induce neither apoptosis nor death”.
